Structures are written as SMILES.

Experimental findings from patent EP3797781A1, “USE OF EC-7072 AND SYNERGIC COMPOSITIONS THEREOF IN TREATMENT OF CHRONIC LYMPHOCYTIC LEUKEMIA” (priority 2019, dated 2021) are described below.

The test system of the data set is T cells isolated from patients with CLL. The experiment in a line: T cell apoptosis by Annexin V/PI staining. The data set is classed as cell-based, human. Conditions: 200 nM, 24 hours; n = 3. How it is done: Cell viability and apoptosis were evaluated by double-staining with the mitochondrial inner transmembrane potential (ΔΨm)-sensitive dye DiOC6(3) (3,3'-dihexyloxacarbocyanine iodide; Sigma-Aldrich) and the exclusion dye propidium iodide (PI; Immunostep), allowing identification of apoptotic [DiOC6(3)^low PI^-] and dead [PI^+] cells as per Proc. Natl. Acad. Sci. U.S.A. (2014) 111(8):3020-3025 and Methods Mol. Biol. (2016) 1419:1-16. Briefly, PBMCs were resuspended in culture medium containing 20 nM DiOC6(3) and incubated for 30 minutes at 37 °C. Then, PI (1 µg/mL) was added and cells were further incubated for 10 minutes at room temperature (RT). Cells were analyzed by flow cytometry considering DiOC6(3)^+PI^- cells as viable. In some experiments, apoptosis was evaluated by staining with Annexin V/PI. […]
The induction of caspase-dependent apoptosis on primary CLL cells by EC-7072 was assessed by: • (i) incubating PBMCs isolated from patients with CLL (n = 6) following treatment with increasing concentrations of EC-7072 (0 - 400 nM) for 24 hours. Apoptosis of leukemia cells was evaluated by cytofluorometric assessment of Annexin V/PI staining to obtain percentages of apoptotic [Annexin V^+ PI^-] and dead [PI^+] cells (Figure 3A); • (ii) incubating PBMCs and T cells isolated from patients with CLL (n = 3) following treatment with EC-7072 (200 nM) for 24 hours. […]

As to `CO[C@@H]([C@@H]1Cc2cc3cc(O[C@H]4C[C@@H](O[C@H]5C[C@@H](O)[C@H](O)[C@@H](C)O5)[C@H](O)[C@@H](C)O4)c(C)c(O)c3c(O)c2C(=O)[C@H]1O[C@H]1C[C@@H](O[C@H]2C[C@@H](O[C@H]3C[C@](C)(O)[C@H](O)[C@@H](C)O3)[C@@H](O)[C@@H](C)O2)[C@H](O)[C@@H](C)O1)[C@@H](O)C(C)=O` [EC-7072, mithramycin SK], the “T cell apoptosis (Annexin V/PI)” value is on record as “no significant apoptosis”.
